Where a name gives a salt, the structure may show the parent alone. Read-outs that look alike come from different tables or passages of the source.
Assays:
HEL92 cells = assay: Growth inhibition, MTS assay, HEL92; assay type: cell-based, Human; conditions: MTS cell viability, read-out: HEL92 ED50
MV4-11 cells = assay: Growth inhibition, MTS assay, MV4-11; assay type: cell-based, Human; conditions: MTS cell viability, read-out: MV4-11 ED50
Pim-1 = Pim-1 (Homo sapiens (Human), UniProt P11309); assay: ADP-Glo Kinase Assay, Pim-1; assay type: biochemical; conditions: 1 μM compound; for inhibition at 1 µM: read-out: Pim-1 % INH (1 μM)
How it was run: (§1)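 Compounds were diluted in assay buffer to 1000 nM and incubated with kinase, substrate and ATP at apparent Km. Remaining ATP was depleted, ADP converted to ATP and detected by luciferase; percent inhibition came from normalized luminescence.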

Pim-3 = Pim-3 (Homo sapiens (Human), UniProt Q86V86); assay: ADP-Glo Kinase Assay, Pim-3; assay type: biochemical; conditions: 1 μM compound; for inhibition at 1 µM: read-out: Pim-3 % INH (1 μM)
How it was run: as §1

CDK2/E = CDK2/E (Homo sapiens (Human), UniProt P24941); assay: ADP-Glo Kinase Assay, CDK2/E; assay type: biochemical; conditions: 1 μM compound; for inhibition at 1 µM: read-out: CDK2/E % INH (1 μM)
How it was run: as §1

hERG potassium channel = hERG potassium channel (Homo sapiens (Human), UniProt Q12809); assay: hERG automated patch clamp assay (QPatch HT)
Method: The hERG (human ether-A-go-go-related gene) channel corresponds to an important anti-target for potential new drugs since its inhibition may lead to sudden death. In order to establish whether the compounds of the present invention act on hERG, the following experiment was carried out.
The in vitro effects of the compounds indicated in Table 5 on the hERG potassium channel current (a surrogate for Iκr, the rapidly activating, delayed rectifier cardiac potassium current) expressed in mammalian cells were evaluated at room temperature using the QPatch HT® (Sophion Bioscience A/S, Denmark), an automatic parallel patch clamp system. Each compound indicated in Table 5 was evaluated at 0.1, 1, 3, 10 and 30 μM with each concentration tested in a minimum of two cells (n≥2). The duration of exposure to each compound concentration was 3 minutes.

Jeko-1 cells = assay: Growth inhibition, MTS assay, Jeko-1; assay type: cell-based, Human; conditions: 72 hours, MTS cell viability, read-out: Jeko-1 ED50
Source text: (§2) The following cell lines, were obtained and used in tests as outlined below: • Human myelomonocytic, biphenotypic leukemia MV4-11 cells (harboring a Flt3-ITD mutation); • Human Acute Myeloid Leukemia MOLM16 cells; • Human Acute Myeloid Leukemia MOLM13 cells (harboring a Flt3-ITD mutation); • Human Myeloid Leukemia KG-1 cells; • Human erythroleukemia HEL92 cells; • Human mantle cell lymphoma Jeko-1 cells; • Human hepatocellular carcinoma HepG2 cells; and • Human colon adenocarcinoma SW-480 cells.
(§3) The assays were carried out according to the following protocol, which is described as an example for the MV4-11 cells:
(§4) Ten thousand MV4-11 cells were inoculated into each well of a 96-well microplate (manufactured by Corning Corp.) using Iscove's MDM medium (culture medium) containing 10% fetal calf serum (FCS). The same day, a dimethyl sulfoxide (DMSO) solution of each test compound prepared in a concentration of 10 mmol/L was further diluted with DMSO to the desired concentrations (0.1, 0.5, 1, 2.5, 5 and 10 micromol/L), and the diluted solution was added to each well. The individual wells were further cultured in 5% carbon dioxide at 37° C. for 72 hours. […] Briefly, 10 μl MTS (3-(4,5-Dimethyl-2-thiazolyl)-5-(carboxymethoxyphenyl)-2-(4-sulfophenyl)-2H-tetrazolium was added to each well, and culturing was performed in 5% carbon dioxide at 37° C. for 2 hours. After this incubation and using a microplate spectrophotometer (Synergy 2 multi-mode microplate reader (BioTek)), the absorbance of each well was measured at 490 nm. The value for cells not incubated with a test compound was designated as 100%. By comparing these values with the absorbance difference obtained at the well in which each test compound was added, the cell viability (% viability) after treatment with the test compound was calculated.

HepG2 cells = assay: Growth inhibition, MTS assay, HepG2; assay type: cell-based, Human; conditions: MTS cell viability, read-out: HepG2 ED50
FLT3wt = FLT3wt (Homo sapiens (Human), UniProt P36888); assay: ADP-Glo Kinase Assay, Flt3 wt; assay type: biochemical; conditions: 1 μM compound; for inhibition at 1 µM: read-out: Flt3wt % INH (1 μM)
How it was run: as §1

DYRK1 = DYRK1 (Homo sapiens (Human), UniProt Q13627); assay: ADP-Glo Kinase Assay, DYRK1; assay type: biochemical; conditions: 1 μM compound; for inhibition at 1 µM: read-out: DYRK1A % INH (1 μM)
How it was run: as §1

Pim-2 = Pim-2 (Homo sapiens (Human), UniProt Q9P1W9); assay: ADP-Glo Kinase Assay, Pim-2; assay type: biochemical; conditions: 1 μM compound; for inhibition at 1 µM: read-out: Pim-2 % INH (1 μM)
How it was run: as §1

MV4-11 xenograft = MV4-11 xenograft in immunocompromised mice; assay type: in vivo; conditions: MV4-11 xenograft, oral
Source text: Several compounds of the present invention have been studied in a xenograft in mice, an in vivo tumor transplantation model used to investigate the factors involved in malignant transformation, invasion and metastasis, as well as to examine response to therapy. For the purpose of acceptance of donor leukemic cells (MV4-11 or MOLM16 cells), immunocompromised mice were used, namely particularly severely compromised immunodeficient mice (NOD/scid, SCID/beige). When tumors developed size of approx. 50-200 mm^3, the compounds as indicated below in Tables 3 and 3a were administered orally every day for 2-3 weeks, in once a day (QD) or twice a day (BID) schedule. During the course of the experiment, the mice were monitored and the following two parameters were measured: the tumor growth inhibition (TGI) factor as a measure of therapeutic efficacy and the body weight change (ΔBW) factor as a measure of possible compound toxicity. The results are depicted in Tables 3 and 3a.
Next, compound 26A was evaluated in a xenograft study of acute myeloid leukemia (MV-4-11), alone or in a combinational treatment with Cytarabine in vivo (Table 3b; FIG. 6). Compound 26A was tested in two doses (50 and 25 mg/kg) and administered twice a day (BID); Cytarabine was administered at dose of 50 mg/kg three times in a week (TIW). During 15 days of compound administration dose-dependent anti-cancer activity of compound 26A (administered alone) was shown. Tumor growth inhibition reached −82% and −77%, respectively.

SW-480 cells = assay: Growth inhibition, MTS assay, SW-480; assay type: cell-based, Human; conditions: 72 hours, MTS cell viability, read-out: SW-480 ED50
Source text: as §2, §3, §4

Sequence of hERG potassium channel (Q12809 whole entry): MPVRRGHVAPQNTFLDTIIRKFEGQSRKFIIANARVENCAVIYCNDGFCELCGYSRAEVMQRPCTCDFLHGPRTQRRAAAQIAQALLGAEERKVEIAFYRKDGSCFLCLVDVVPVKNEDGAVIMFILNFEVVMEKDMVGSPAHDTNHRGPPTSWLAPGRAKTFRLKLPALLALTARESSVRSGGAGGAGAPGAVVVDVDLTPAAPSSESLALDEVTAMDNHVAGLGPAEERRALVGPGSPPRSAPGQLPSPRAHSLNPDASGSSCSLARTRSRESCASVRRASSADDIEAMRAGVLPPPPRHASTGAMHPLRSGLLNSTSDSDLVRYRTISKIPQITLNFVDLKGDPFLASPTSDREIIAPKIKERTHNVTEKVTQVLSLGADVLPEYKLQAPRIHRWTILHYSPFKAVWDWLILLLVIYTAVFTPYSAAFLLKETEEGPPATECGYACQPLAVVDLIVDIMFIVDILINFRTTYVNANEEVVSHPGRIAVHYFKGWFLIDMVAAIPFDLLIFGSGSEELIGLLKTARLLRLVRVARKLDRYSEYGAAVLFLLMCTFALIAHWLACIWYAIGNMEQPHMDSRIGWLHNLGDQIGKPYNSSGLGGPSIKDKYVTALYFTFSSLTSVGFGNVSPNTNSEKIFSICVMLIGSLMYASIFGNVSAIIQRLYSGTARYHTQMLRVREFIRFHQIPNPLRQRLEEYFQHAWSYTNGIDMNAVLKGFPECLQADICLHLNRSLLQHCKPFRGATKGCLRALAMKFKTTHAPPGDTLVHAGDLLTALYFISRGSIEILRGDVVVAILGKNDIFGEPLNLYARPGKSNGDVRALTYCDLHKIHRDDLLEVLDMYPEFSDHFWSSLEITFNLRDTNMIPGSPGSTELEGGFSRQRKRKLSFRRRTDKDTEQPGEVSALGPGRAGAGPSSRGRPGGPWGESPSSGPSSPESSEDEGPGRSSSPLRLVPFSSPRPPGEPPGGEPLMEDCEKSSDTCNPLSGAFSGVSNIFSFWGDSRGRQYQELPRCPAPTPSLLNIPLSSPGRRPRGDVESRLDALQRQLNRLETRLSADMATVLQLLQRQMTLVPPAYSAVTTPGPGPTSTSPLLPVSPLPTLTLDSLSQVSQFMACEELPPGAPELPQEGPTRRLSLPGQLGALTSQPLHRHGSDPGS
Sequence of FLT3wt (P36888 27-993): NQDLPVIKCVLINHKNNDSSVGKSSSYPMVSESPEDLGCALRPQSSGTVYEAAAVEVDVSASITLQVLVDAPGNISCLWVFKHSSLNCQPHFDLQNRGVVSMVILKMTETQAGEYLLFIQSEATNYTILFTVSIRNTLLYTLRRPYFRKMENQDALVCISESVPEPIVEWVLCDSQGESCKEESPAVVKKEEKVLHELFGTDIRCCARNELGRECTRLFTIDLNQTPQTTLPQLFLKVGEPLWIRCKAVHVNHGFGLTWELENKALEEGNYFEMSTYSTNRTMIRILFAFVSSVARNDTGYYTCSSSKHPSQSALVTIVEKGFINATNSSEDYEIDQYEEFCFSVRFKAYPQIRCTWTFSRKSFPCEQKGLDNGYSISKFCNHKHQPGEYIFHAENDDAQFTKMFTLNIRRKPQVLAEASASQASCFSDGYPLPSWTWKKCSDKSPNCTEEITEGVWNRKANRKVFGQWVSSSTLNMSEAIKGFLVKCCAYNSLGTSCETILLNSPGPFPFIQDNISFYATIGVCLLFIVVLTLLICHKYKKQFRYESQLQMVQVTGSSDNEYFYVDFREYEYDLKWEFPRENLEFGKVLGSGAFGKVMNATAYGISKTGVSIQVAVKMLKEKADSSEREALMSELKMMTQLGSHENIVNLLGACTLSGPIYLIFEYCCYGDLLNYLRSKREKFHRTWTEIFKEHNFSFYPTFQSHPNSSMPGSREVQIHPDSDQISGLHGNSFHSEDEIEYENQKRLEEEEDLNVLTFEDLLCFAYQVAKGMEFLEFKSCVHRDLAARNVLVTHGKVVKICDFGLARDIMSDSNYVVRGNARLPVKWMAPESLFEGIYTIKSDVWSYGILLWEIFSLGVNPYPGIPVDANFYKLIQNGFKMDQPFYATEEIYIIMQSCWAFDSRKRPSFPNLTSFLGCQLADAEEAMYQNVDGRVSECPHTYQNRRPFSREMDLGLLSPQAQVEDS
Sequence of Pim-1 (P11309 whole entry): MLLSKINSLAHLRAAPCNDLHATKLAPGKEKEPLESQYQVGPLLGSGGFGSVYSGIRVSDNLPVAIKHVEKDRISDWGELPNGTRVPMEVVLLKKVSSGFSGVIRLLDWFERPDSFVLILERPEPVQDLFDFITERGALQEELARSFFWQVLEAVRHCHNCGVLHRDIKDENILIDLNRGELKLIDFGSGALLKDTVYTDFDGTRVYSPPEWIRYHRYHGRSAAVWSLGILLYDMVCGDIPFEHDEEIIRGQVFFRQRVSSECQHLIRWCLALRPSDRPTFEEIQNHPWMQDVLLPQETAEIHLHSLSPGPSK
Sequence of Pim-2 (Q9P1W9 whole entry): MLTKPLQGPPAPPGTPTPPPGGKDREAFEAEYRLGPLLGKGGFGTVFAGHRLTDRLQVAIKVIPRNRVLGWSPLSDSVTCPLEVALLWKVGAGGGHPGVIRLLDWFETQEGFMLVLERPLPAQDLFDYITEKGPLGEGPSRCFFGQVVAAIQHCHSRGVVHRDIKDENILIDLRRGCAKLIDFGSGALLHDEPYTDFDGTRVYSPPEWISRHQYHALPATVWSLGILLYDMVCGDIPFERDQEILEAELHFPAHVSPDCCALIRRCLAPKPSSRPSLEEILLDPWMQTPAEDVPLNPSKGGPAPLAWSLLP

Structure (SMILES) | IC50 (HEL92 cells; Homo sapiens, 72 h) [nM] | IC50 (MV4-11 cells; Homo sapiens, MV4-11, 72 h) [nM] | inhibition at 1 µM (Pim-1) [%] | inhibition at 1 µM (Pim-3) [%] | inhibition at 1 µM (CDK2/E) [%] | IC50 (Jeko-1 cells; Homo sapiens, JeKo-1) [nM] | IC50 (HepG2 cells; Homo sapiens, HepG2, 72 h) [nM] | inhibition at 1 µM (FLT3wt) [%] | inhibition at 1 µM (DYRK1) [%] | inhibition at 1 µM (Pim-2) [%] | IC50 (hERG potassium channel) [nM] | IC50 (SW-480 cells; Homo sapiens, SW480) [nM] | also measured
CCn1c(NCC2CCCN2)nc2c([N+](=O)[O-])c(Br)c(Br)cc21 (stereo not shown) [Example 1AM] | 8000 | 2600 | 85 | 53 | 12 | 2800 | 2700 | < 5 | – | – | – | – | IC50 (hERG potassium channel; human, 3 min): 1460 nM
CC(C)n1c(N2CCOC(CN)C2)nc2c([N+](=O)[O-])c(Br)c(Br)cc21 (stereo not shown) [Example 1AQ] | 9600 | 2500 | > 95 | 83 | < 5 | – | 4900 | < 5 | 22 | 40 | – | – | IC50 (hERG potassium channel; human, 3 min): 1860 nM
CC(C)n1c(N[C@@H]2CCCNC2)nc2c([N+](=O)[O-])c(Br)c(Br)cc21 [Example 1AS] | – | – | – | – | – | – | – | – | – | – | 5770 | – | IC50 (HEL92 cells; 72 hours): 5400 nM; IC50 (MV4-11 cells; 72 hours): 600 nM; IC50 (Jeko-1 cells): 1100 nM; IC50 (HepG2 cells; 72 hours): 1400 nM
CC(C)Cn1c(N2CCNCC2)nc2c([N+](=O)[O-])c(Br)c(Br)cc21 [Example 1N] | 1400 | 600 | > 95 | > 95 | 39 | – | 1700 | 55 | > 95 | 69 | – | 1200 | IC50 (hERG potassium channel; human, 3 min): 1280 nM; TGI (tumor growth inhibition) (MV4-11 xenograft; 150 mg/Kg QD): 52%; ΔBW (body weight change) (MV4-11 xenograft; 150 mg/Kg QD): −6.5%; TGI (tumor growth inhibition) (MV4-11 xenograft; doses as in Table 3): up to 70%
CCCn1c(NCCCN)nc2c([N+](=O)[O-])c(Br)c(Br)cc21 [Example 1P] | – | – | – | – | – | – | – | – | – | – | 1880 | – | IC50 (HEL92 cells; 72 hours): 7000 nM; IC50 (MV4-11 cells; 72 hours): 1400 nM; Pim-1 % INH (1 μM) (Pim-1): >95%; Pim-3 % INH (1 μM) (Pim-3): 77%; CDK2/E % INH (1 μM) (CDK2/E): <5%; DYRK1A % INH (1 μM) (DYRK1): 23%; IC50 (HepG2 cells; 72 hours): 1500 nM; Flt3wt % INH (1 μM) (FLT3wt): 37%; IC50 (SW-480 cells): 2900 nM; Pim-2 % INH (1 μM) (Pim-2): 36%
CCCn1c(NCC(O)CN)nc2c([N+](=O)[O-])c(Br)c(Br)cc21 (stereo not shown) [Example 1X] | – | 1200 | > 95 | > 95 | 17 | 4300 | – | < 5 | 16 | 36 | 20400 | – | –
CC(C)Cn1c(NCC(O)CN)nc2c([N+](=O)[O-])c(Br)c(Br)cc21 (stereo not shown) [Example 1Y] | – | 1400 | > 95 | 86 | 6 | 3400 | – | < 5 | – | 25 | 16900 | – | –
O=[N+]([O-])c1c(Br)c(Br)cc2c1nc(N1CCNCC1)n2CCN1CCNCC1 [Example 2C, 5,6-dibromo-4-nitro-2-(piperazin-1-yl)-1-[2-(piperazin-1-yl)ethyl]-1H-1,3-benzodiazole hydrochloride] | – | 2800 | – | – | – | 6200 | 7000 | – | – | – | 2500 | – | –
CC(C)=CCn1c(N2CCNCC2)nc2c([N+](=O)[O-])c(Br)c(Br)cc21 [Example 2E, 5,6-dibromo-1-(3-methylbut-2-en-1-yl)-4-nitro-2-(piperazin-1-yl)-1H-1,3-benzodiazole hydrochloride] | 5400 | 5500 | 79 | 56 | 15 | 1600 | 900 | 25 | 72 | 63 | – | 1800 | –
O=[N+]([O-])c1c(Br)c(Br)cc2c1nc(N1CCNCC1)n2C1CC1 [Example 21A, 5,6-dibromo-1-cyclopropyl-4-nitro-2-(piperazin-1-yl)-1H-1,3-benzodiazole trifluoroacetate] | 1900 | 500 | 87 | 71 | 5 | 600 | 1600 | 37 | 50 | 42 | – | 3200 | –
CCn1c(N2CCNC(=O)C2)nc2c([N+](=O)[O-])c(Br)c(Br)cc21 [Example 22A, 4-(5,6-dibromo-1-ethyl-4-nitro-1H-1,3-benzodiazol-2-yl)piperazin-2-one] | – | – | 65 | 28 | < 5 | – | – | 8 | – | – | – | – | IC50 (hERG potassium channel; read-out: hERG IC50, automated patch clamp, room temperature, 0.1-30 μM, 3 minutes exposure): 10100 nM
CCn1c(NC2CCCCC2N)nc2c([N+](=O)[O-])c(Br)c(Br)cc21 (stereo not shown) [Example 22L, 1-N-(5,6-dibromo-1-ethyl-4-nitro-1H-1,3-benzodiazol-2-yl)cyclohexane-1,2-diamine] | 3200 | 1900 | 80 | > 95 | < 5 | – | 1300 | < 5 | 17 | – | 850 | 1200 | –
CCn1c(N2CCN(CCCN3CCNCC3)CC2)nc2c([N+](=O)[O-])c(Br)c(Br)cc21 [Example 22R, 5,6-dibromo-1-ethyl-4-nitro-2-{4{3-(piperazin-1-yl)propyl]piperazin-1-yl}-1H-1,3-benzodiazole] | 2900 | 1100 | – | – | – | – | 1200 | – | – | – | 1780 | 500 | –
